In ChEMBL document CHEMBL4610034, “Synthesis and biological evaluation of 4-arylcoumarins as potential anti-Alzheimer's disease agents” (Bioorg Med Chem Lett, 2020):
pIC50: −log10 of the molar value. Active and inactive are the calls of the source. The calls are words filed in the database; no cut-off is given here.

Legend:
[1] = molecular target: T1, Amine oxidase [flavin-containing] B (Rattus norvegicus, UniProt P19643); experiment: Inhibition of MAO-B in Wistar rat liver using 4-trifluoromethyl benzylamine as substrate preincubated for 20 mins followed by substrate addition measured after 90 mins by microplate reader assay; type: tissue-based
T1 sequence (P19643 whole entry): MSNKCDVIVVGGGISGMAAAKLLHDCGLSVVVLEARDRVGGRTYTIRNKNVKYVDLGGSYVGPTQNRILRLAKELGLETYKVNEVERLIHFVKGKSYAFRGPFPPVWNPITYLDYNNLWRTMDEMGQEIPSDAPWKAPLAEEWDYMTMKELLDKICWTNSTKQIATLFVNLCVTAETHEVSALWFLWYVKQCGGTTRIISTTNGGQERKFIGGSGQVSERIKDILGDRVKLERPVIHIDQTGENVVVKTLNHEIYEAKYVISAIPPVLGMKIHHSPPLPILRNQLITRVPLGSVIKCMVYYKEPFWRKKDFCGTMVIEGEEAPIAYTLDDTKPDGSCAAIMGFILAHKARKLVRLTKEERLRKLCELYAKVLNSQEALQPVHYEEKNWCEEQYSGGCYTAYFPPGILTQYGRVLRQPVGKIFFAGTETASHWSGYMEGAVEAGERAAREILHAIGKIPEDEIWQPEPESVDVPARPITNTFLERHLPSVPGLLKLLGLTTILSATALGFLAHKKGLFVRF

Acetylcholinesterase = Acetylcholinesterase (Electrophorus electricus, UniProt O42275); experiment: Inhibition of electric eel AChE using acetylthiocholine as substrate preincubated for 5 mins followed by substrate addition measured after 20 mins by Ellman's method
Cholinesterase = Cholinesterase (Equus caballus, UniProt P81908); experiment: Inhibition of equine serum BuChE using butyrylthiocholine as substrate preincubated for 5 mins followed by substrate addition measured after 20 mins by Ellman's method
[2] = Antioxidant activity assessed as reduction of colourless Fe3+-TPTZ complex to coloured Fe2+-TPTZ complex measured after 5 mins by FRAP assay; type: functional
[3] = molecular target: Acetylcholinesterase (Electrophorus electricus) (UniProt O42275); experiment: Mixed-type inhibition of electric eel AChE at 0.5 to 50 nM using varying level of acetylthiocholine as substrate preincubated for 5 mins followed by substrate addition measured after 20 mins by Ellman's method
[4] = molecular target: T1, Amine oxidase [flavin-containing] B; experiment: Non-competitive inhibition of MAO-B extracted from Wistar rat liver at 5 to 500 uM using varying level of 4-trifluoromethyl benzylamine as substrate preincubated for 20 mins followed by substrate addition measured after 90 mins by microplate reader assay; details: 1.5 h

Sequence of Acetylcholinesterase (O42275 whole entry): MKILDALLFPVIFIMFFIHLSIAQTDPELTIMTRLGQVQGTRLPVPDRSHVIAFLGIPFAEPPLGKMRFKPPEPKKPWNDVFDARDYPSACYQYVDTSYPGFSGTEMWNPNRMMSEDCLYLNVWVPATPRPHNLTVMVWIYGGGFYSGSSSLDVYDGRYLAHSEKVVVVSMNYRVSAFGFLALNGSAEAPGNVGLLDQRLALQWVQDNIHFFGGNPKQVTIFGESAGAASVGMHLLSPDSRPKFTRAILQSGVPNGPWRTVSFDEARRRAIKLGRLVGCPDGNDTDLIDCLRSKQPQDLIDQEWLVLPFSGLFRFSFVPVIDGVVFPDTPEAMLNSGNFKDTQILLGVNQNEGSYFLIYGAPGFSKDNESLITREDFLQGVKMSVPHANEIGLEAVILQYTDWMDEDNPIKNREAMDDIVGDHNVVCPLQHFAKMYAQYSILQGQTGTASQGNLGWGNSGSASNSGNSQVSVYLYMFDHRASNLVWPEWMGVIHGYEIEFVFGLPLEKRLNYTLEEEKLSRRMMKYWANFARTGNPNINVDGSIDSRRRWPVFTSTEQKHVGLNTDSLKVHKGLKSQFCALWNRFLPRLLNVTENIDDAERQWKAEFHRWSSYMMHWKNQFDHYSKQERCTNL
Sequence of Cholinesterase (P81908 whole entry): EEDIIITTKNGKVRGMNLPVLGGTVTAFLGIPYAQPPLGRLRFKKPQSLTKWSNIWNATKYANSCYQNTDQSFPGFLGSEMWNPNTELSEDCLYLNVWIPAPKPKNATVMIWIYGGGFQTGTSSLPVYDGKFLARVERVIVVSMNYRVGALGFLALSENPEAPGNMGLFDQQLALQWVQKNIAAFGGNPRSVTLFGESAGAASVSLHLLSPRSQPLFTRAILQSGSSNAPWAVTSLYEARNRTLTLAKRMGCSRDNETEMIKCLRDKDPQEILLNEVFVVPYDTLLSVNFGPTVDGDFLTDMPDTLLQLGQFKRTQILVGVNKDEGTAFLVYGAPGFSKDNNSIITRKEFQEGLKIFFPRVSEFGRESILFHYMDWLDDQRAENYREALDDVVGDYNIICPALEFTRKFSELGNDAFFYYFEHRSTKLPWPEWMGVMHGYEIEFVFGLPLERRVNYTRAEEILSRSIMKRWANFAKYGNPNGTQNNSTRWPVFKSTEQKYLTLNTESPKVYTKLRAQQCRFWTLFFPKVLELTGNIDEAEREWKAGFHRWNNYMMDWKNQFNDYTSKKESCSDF
Sequence of Acetylcholinesterase (Electrophorus electricus) (O42275 24-633 limits assumed): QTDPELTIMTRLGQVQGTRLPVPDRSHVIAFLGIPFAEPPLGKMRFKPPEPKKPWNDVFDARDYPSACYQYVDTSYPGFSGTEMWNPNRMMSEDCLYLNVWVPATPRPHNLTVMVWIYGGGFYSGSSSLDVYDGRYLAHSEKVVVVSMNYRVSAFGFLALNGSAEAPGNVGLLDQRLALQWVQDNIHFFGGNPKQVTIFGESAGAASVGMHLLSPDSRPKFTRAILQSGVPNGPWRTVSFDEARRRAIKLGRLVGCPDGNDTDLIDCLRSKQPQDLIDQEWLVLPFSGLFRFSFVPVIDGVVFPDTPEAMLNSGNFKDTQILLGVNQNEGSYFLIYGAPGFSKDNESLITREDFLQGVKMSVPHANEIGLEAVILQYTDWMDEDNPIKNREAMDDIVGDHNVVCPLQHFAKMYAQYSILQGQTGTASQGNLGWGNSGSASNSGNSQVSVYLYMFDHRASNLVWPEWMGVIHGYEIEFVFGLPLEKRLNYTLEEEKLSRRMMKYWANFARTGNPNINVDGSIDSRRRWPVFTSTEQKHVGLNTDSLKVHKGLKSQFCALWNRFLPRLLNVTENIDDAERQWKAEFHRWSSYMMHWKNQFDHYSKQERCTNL

Row | Compound | pIC50 [1] | pIC50 (Acetylcholinesterase) | pIC50 (Cholinesterase) | Activity [2] [mmol/g] | inhibition [3] | inhibition (INH) [4]
1 | COc1ccc(C2CC(=O)Oc3cc(O)cc(O)c32)cc1OC (stereo not drawn) | 3.85 | < 4.30 | < 3.52 | 1.5 |  | 
2 | O=c1cc(-c2cc(O)c(O)c(O)c2)c2ccc(O)c(O)c2o1 | 5.70 | 7.60 | 3.97 | 10.1 | Active | 
3 | COc1ccc(C2CC(=O)Oc3ccc(O)cc32)cc1OC (stereo not drawn) | < 3.52 | < 4.30 | < 3.52 | 0.922 |  | 
4 | O=c1cc(-c2ccc(O)c(O)c2)c2ccc(O)c(O)c2o1 | 3.72 | 5.15 | 3.72 | 10.5 |  | 
5 | O=c1cc(-c2ccc(O)cc2)c2ccc(O)c(O)c2o1 | 3.53 | 5.02 | < 3.52 | 9.89 |  | 
6 | COc1cc(C2CC(=O)Oc3c2ccc(O)c3O)ccc1O (stereo not drawn) | 6.59 | 4.96 | 3.87 | 10.1 |  | Active
7 | COc1ccc(C2CC(=O)Oc3cc(O)cc(O)c32)cc1 (stereo not drawn) | 4.08 | < 4.30 | < 3.52 | 1.06 |  | 
8 | O=C1CC(c2ccc(O)cc2)c2c(O)cc(O)cc2O1 (stereo not drawn) | 4.71 | < 4.30 | < 3.52 | 2.26 |  | 
9 | COc1ccc(-c2cc(=O)oc3cc(O)cc(O)c23)cc1OC | 3.98 | 5.10 | < 3.52 | 1.37 |  | 
10 | O=c1cc(-c2ccc(O)c(O)c2)c2cc(O)cc(O)c2o1 | 4.65 | 5.15 | 3.68 | 10.5 |  | 
11 | COc1ccc(C2CC(=O)Oc3c(O)cc(O)cc32)cc1 (stereo not drawn) | 4.12 | < 4.30 | < 3.52 | 2.85 |  | 
12 | COc1ccc(C2CC(=O)Oc3c(O)cc(O)cc32)cc1OC (stereo not drawn) | 4.58 | < 4.30 | < 3.52 | 4.76 |  | 
13 | COc1cc(C2CC(=O)Oc3cc(O)cc(O)c32)ccc1O (stereo not drawn) | 4.25 | < 4.30 | < 3.52 | 9.01 |  | 
14 | COc1cc(C2CC(=O)Oc3cc(O)ccc32)ccc1O (stereo not drawn) | 4.08 | < 4.30 | < 3.52 | 9.38 |  | 
15 | COc1ccc(C2CC(=O)Oc3c2ccc(O)c3O)cc1 (stereo not drawn) | 5.66 | 4.66 | 3.83 | 9.17 |  | 
16 | COc1ccc(-c2cc(=O)oc3c(O)c(O)ccc23)cc1OC | < 3.52 | 7.28 | < 3.52 | 9.89 |  | 
17 | O=C1CC(c2ccc(O)c(O)c2)c2ccc(O)c(O)c2O1 (stereo not drawn) | 6.37 | 6.55 | 4.14 | 9.6 |  | 
18 | COc1ccc(C2CC(=O)Oc3cc(O)ccc32)cc1 (stereo not drawn) | < 3.52 | < 4.30 | < 3.52 | 0.896 |  | 
19 | O=C1O[C@H]([C@@H](O)CO)C(O)=C1O |  |  |  | 9.87 |  | 
20 | COc1cc(-c2cc(=O)oc3c(O)c(O)ccc23)cc(OC)c1OC | < 3.52 | 6.52 | < 3.52 | 9.65 |  | 
21 | O=c1cc(-c2ccc(O)c(O)c2)c2ccc(O)cc2o1 | < 3.52 | 5.05 | < 3.52 | 9.71 |  | 
